The values that follow are results of earlier work, collected in patent publication US20070009535A1 (priority 2005, published 2007).

The conditions of this data set: several oncolytics tested in preclinical models.

On to `O[C@@H](COc1cccc2ncccc12)CN1CCN([C@@H]2c3ccccc3[C@@H]3[C@H](c4ccccc42)C3(F)F)CC1` [zosuquidar], for which the “pharmacokinetic interactions with oncolytics” value is given as “minimal pharmacokinetic (PK) interactions”.
